Measured values from US10912741B2, “Prevention of liver cancer with safranal-based formulations” (United Arab Emirates University, priority 2019, dated 2021).
Marks after values point to notes of the source that are not given here.

How the values were obtained:
[1] = Cell viability assay (CellTiter-Glo); type: cell-based, human; conditions: human, HepG2 cells, 1 mM safranal, read-out: reduction of cell viability
Experimental: (§1) HepG2, were cultured in RPMI 1640 medium (HyClone, USA) and 1% of 100 U/ml penicillin and 100 ug/ml streptomycin (Sigma, USA) supplemented with 10% fetal bovine serum (Sigma, USA) at 37° C. in a humidified 5% CO2 atmosphere. Cells were sub-cultured each 4-6 days using trypsin 0.25% (Hyclone, USA).
(§2) HepG2 cells were seeded in 96-well plates at the density of 10000 cells/well and grown in 100 uL of complete growth medium. Complete growth medium was replaced by serum-free medium after cells were allowed to attach for 24 hours; after which cells were incubated for at least 12 hours. Cells were incubated for 24 hours after treatment with various concentrations of safranal (1 mM, 0.3 mM, 0.1 mM, 0.03 mM, 0.01 mM) prepared from 10 mM stock solution. After incubation period, viability of HepG2 cells was assessed using CellTiter-Glo luminescent cell viability assay kit according to manufacturer's instruction (Promega, USA).

HepG2 cells = assay: Cell viability assay (CellTiter-Glo); type: cell-based, human; conditions: 0.01, 0.03, 0.1, 0.3, 1 mM, 24 hours
Experimental: as §1, §2

[2] = test system: placental glutathione s-transferase (GST-p); assay: Immunohistochemical staining of liver sections, GST-p positive foci; type: in vivo, albino Wistar rats
Experimental: (§3) The experimental hepatocarcinogenesis model was developed according to a protocol by Espandiaria et al. that was adapted for our purposes. To initiate and promote hepatocarcinogenesis, diethylnitrosamine (DEN) and 2-acetylaminofluorene (2-AAF) were used, respectively. For hepatocarcinogenesis initiation in this model, a single DEN dose (200 mg/kg b.wt.) dissolved in saline was injected intraperitoneally. After initiation, all rats underwent one period of 5-days fasting, as mitotic proliferative stimuli. To promote hepatocarcinogenesis, 2-acetylaminofluorene (2-AAF) was introduced in the form of six daily intragastric doses (30 mg/kg in 1% Tween 80); two weeks after DEN treatment.
Safranal at doses of 25 mg/kg by weight (b.wt.) and 50 mg/kg b.wt, was administrated orally to rats. These doses have been reported to suppress chemically-induced oxidative damage in rats. A total of 40 adult male albino Wistar rats were randomly divided into […] (n=8) and were subjected to different treatments. […]
(§4) For immunohistochemical staining, mounted sections were immersed in sodium citrate buffer (0.1 M, pH 6) and placed in a water bath for 15 minutes to unmask antigen epitopes. […] Ten fields were randomly selected to quantify positive cells, in individual samples (400×). […]

ED-1 (macrophages) = assay: Immunohistochemical staining of liver sections, ED-1 positive cells (macrophages); type: in vivo, albino Wistar rats; conditions: mean±SEM, 8 rats
Experimental: as §3
Safranal at doses of 25 mg/kg by weight (b.wt.) and 50 mg/kg b.wt, was administrated orally to rats. These doses have been reported to suppress chemically-induced oxidative damage in rats. A total of 40 adult male albino Wistar rats were randomly divided into […] (n=8) and were subjected to different treatments. Group 1 (control) was orally administered distilled water (5 ml/kg b.wt.) throughout the experimental duration and were injected with a single dose of saline. Group 2 (Safranal only) was subjected to a safranal dose (50 mg/kg b.wt.) through oral administration for the duration of the experimental period. Hepatocarcinogenesis was induced by DEN and promoted by 2-AAF, as reported previously, in group 3 (HCC). Rats in protective groups (groups 4-5) were treated with low/high doses of saffron-based safranal suspensions, at the beginning of promotion periods and continued for 12 weeks. The low dosage treatment with safranal consisted of 25 mg/kg b.wt., and the high dosage treatment consisted of 50 mg/kg b.wt. The experimental design is illustrated in FIG. 1.
as §4

[3] = test system: foci of altered hepatocytes (FAH); assay: Histopathology (H&E) of liver, foci of altered hepatocytes; type: in vivo, albino Wistar rats
Experimental: as §3
Safranal at doses of 25 mg/kg by weight (b.wt.) and 50 mg/kg b.wt, was administrated orally to rats. These doses have been reported to suppress chemically-induced oxidative damage in rats. A total of 40 adult male albino Wistar rats were randomly divided into […] (n=8) and were subjected to different treatments. Group 1 (control) was orally administered distilled water (5 ml/kg b.wt.) throughout the experimental duration and were injected with a single dose of saline. Group 2 (Safranal only) was subjected to a safranal dose (50 mg/kg b.wt.) through oral administration for the duration of the experimental period. […]

p-IkB in HepG2 cells = assay: Western blotting, p-IkB; type: cell-based, human; conditions: starting at 24 hours of safranal treatment (1 mM)
Experimental: as §1
In 100 mm plates, HepG2 cells were seeded at a density of 2×10^4 in complete growth medium. Cells were allowed to attach for 24 hours, after which complete growth medium was replaced by serum-free medium. Cells were treated with safranal at a concentration of 1 mM (20 mM stock). Plates were incubated for 6, 12, 24, and 48 hours in a humidified 5% CO2 atmosphere at 37° C. At indicated times, 1 mL of cell supernatant was obtained from each plate and was stored at −80° C. for further analysis by ELISA. After which whole cell lysates were prepared. Bicinchoninic acid (BCA) assay (Sigma-Aldrich, USA) was used to determine concentration of protein. Thirty μg of protein were loaded onto 10% SDS polyacrylamide electrophoresis gels. The gels were transferred onto nitrocellulose membranes prior to immunodetection processing with anti-p-IkB-alpha, anti-H2AX (Cell Signaling Technology, USA), and with anti-rabbit IgG peroxidase conjugated secondary antibodies. […]

For CC1=C(C=O)C(C)(C)CC=C1 [Safranal, 2,6,6-trimethylcyclohexa-1,3-diene-1-carbaldehyde], the cytotoxicity at 24 h, 1 mM [1] was ~70%, the HepG2 cells viability (HepG2 cells) was “significant dose-dependent reduction” and the “number of GST-p positive foci and area/cm^2” value ([2]; safranal treatment after DEN exposure (groups 4-5, 25/50 mg/kg b.wt.)) was “significantly reduced the number of GST-p positive foci and the area/cm^2”. The GST-p positive foci ([2]; safranal treatment alone (group 2)) was “did not induce formation of such foci”, the ED-1 positive cells (ED-1 (macrophages); HCC (DEN/2-AAF) rats + safranal high dose 50 mg/kg b.wt. oral, 12 weeks) was 49.84 ± 2.28^b positive cells/field and the ED-1 positive cells (ED-1 (macrophages); HCC (DEN/2-AAF) rats + safranal low dose 25 mg/kg b.wt. oral, 12 weeks) was 59.19 ± 2.0^a&b positive cells/field. For the same compound, the ED-1 positive cells (ED-1 (macrophages); safranal alone 50 mg/kg b.wt. oral, no DEN (group 2)) was 44.33 ± 1.52 positive cells/field, the “number and size of hepatocellular nodules (FAH)” value ([3]; protective groups, DEN-2-AAF rats + low/high doses of safranal (25/50 mg/kg b.wt.)) was “remarkably decrease in number and size” and the “hepatocellular nodules (FAH) in liver sections” value ([3]; treatment with safranal alone (group 2, 50 mg/kg b.wt.)) was “abolished such hepatocellular nodules almost completely”. The “level of p-IkB protein” value (p-IkB in HepG2 cells) was “transiently decreased”.
